The record followed here is PubChem BioAssay AID1996.

What is called solubility (kinetic) is solubility judged after dilution from a stock solution rather than from solid.

Converted amounts (≈) assume the structure as drawn.

For this data set the following is noted: buffer; pH 7.4; 200.0 µM.
Turning to `COC(=O)c1ccc(COC(=O)c2cccn2C)o1`, the kinetic solubility came to 27.1 µg/mL (≈ 103 µM).
The figure for `O=C(OCC(=O)N1CCCCCC1)c1ccc(F)cc1F` is 44.4 µg/mL (≈ 149 µM); for `Cc1ccc(-c2cc(C(=O)NC3CCCCC3)no2)cc1` it is < 0.3 µg/mL.
The figure for `CC(=O)N1N=C(N)SC1(C)C` is > 26 µg/mL.
Take `Cc1cccc(-n2ccc(=O)c(C(=O)O)n2)c1`: the solubility (kinetic) was > 34.5 µg/mL.
For the compound `Cc1ccc(OCCCCN2CCCCC2)c(C)c1`, the kinetic solubility was 19.6 µg/mL (≈ 75 µM).
With `O=C(CSc1ccccn1)Nc1nonc1[N+](=O)[O-]`, the solubility (kinetic) is > 42.2 µg/mL.
The figure for `Cc1ccc2nc(SC(C)C(=O)N3CCCCC3)[nH]c2c1` (centres undefined) is > 45.5 µg/mL; for `COC(=O)c1ccccc1NC(=O)c1cc(C)no1` it is 1.1 µg/mL (≈ 4.23 µM).
The result for `O=C(c1ccc(-c2ccccc2)cc1)N1CCN(c2ccc(F)cc2)CC1` reads 2.4 µg/mL (≈ 6.66 µM); that for `O=C(/C=C/Nc1ccccc1O)c1ccco1`, 5.5 µg/mL (≈ 24 µM).
The figure for `CC(=O)c1ccc(N2CCN(c3ncccn3)CC2)c([N+](=O)[O-])c1` is 39.2 µg/mL (≈ 120 µM); for `O=[N+]([O-])c1ccc(OCCn2cnc3ccccc32)cc1` it is 7.6 µg/mL (≈ 26.8 µM); for `COCC(C)n1c(SCC(=O)N2CCOCC2)nc2ccccc2c1=O` (centres undefined) it is > 56.6 µg/mL.
On to `O=C(CSc1nc2ncccc2[nH]1)NCc1ccco1`, for which the kinetic solubility is > 43.2 µg/mL.
The result for `O=C(O)CCC(=O)NCC(=O)c1ccc(F)cc1` reads > 38 µg/mL; that for `CCOC(=O)C(=O)N(CC)C1CCS(=O)(=O)C1` (centres undefined), > 39.5 µg/mL; that for `Cn1nc(C(F)(F)F)c(-c2ccccc2)c1NC(=O)CCC(=O)O`, > 51.2 µg/mL.
The figure for `CN(CC(=O)Nc1cccc(F)c1)C(=O)/C=C/c1ccc2ccccc2n1` is 9.9 µg/mL (≈ 27.2 µM); for `COc1ccc(CC(C)NC2CCCCCC2)cc1` (centres undefined) it is 31 µg/mL (≈ 119 µM).
The result for `Cc1ccc(O)c(NC(=O)c2onc(C)c2Cl)c1` reads 6.2 µg/mL (≈ 23.2 µM); that for `CCc1cccc(CC)c1N(COC)C(=O)Cn1cnc2ccccc21`, > 52.7 µg/mL.
In the case of `Cc1ccc(CSCc2ccc(C(=O)NC3CC3)o2)cc1`, the solubility (kinetic) was > 45.2 µg/mL.
The figure for `Cc1c(C(=O)NC(=S)Nc2cccnc2)cccc1[N+](=O)[O-]` is 0.9 µg/mL (≈ 2.85 µM); for `C=CCN(CC(=O)O)S(=O)(=O)c1ccccc1C(F)(F)F` it is > 48.5 µg/mL; for `COc1ccc(C(=O)COC(=O)CNC(=O)c2ccc(C)s2)c(OC)c1` it is > 56.6 µg/mL.
The figure for `O=C(COC(=O)CCC(=O)c1ccc(F)cc1)NCc1ccccc1Cl` is > 56.7 µg/mL.
The figure for `Nc1nonc1C(=O)N1CCCCC1` is 28.2 µg/mL (≈ 144 µM).
Turning to `CCOc1ccc(OCCSc2nc(N)cc(=O)[nH]2)cc1`, the kinetic solubility was 4.1 µg/mL (≈ 13.3 µM).
The result for `CC(=O)NC1CC2CCCC(C1)N2Cc1ccc(C)cc1` (centres undefined) reads > 43 µg/mL; that for `O=C(NC(=S)N1CCOCC1)c1ccccc1Cl`, > 42.7 µg/mL.
The figure for `CCN1C(=O)c2cccc3c(Cl)ccc(c23)C1=O` is 1 µg/mL (≈ 3.85 µM); for `CCCCNC(=O)NS(=O)(=O)c1ccc(C)cc1` it is > 40.6 µg/mL.
The figure for `COc1ccc(CCC(=O)NCc2ccc3c(c2)OCO3)cc1` is 23.1 µg/mL (≈ 73.7 µM); for `COc1ccc(Nc2nc(N)c([N+](=O)[O-])c(N3CCCC3)n2)cc1` it is 26.5 µg/mL (≈ 80.2 µM); for `O=C(NCc1ccc(Cl)cc1)c1nccnc1CO` it is 40.5 µg/mL (≈ 146 µM).
Take `O=C(CCCN1C(=O)/C(=C\c2ccccc2)SC1=S)Nc1ccccc1O`: the solubility (kinetic) was < 0.4 µg/mL.
The figure for `COc1ccc2c([N+](=O)[O-])c(Cl)[nH]c2c1` is 32.3 µg/mL (≈ 143 µM).
The result for `COc1cccc2[nH]c(C(=O)NCCc3ccccc3)cc12` reads 1 µg/mL (≈ 3.4 µM).
The result for `CC(C)(C)C(=O)Cn1c(NCCCl)nc2ccccc21.Cl` reads > 49.5 µg/mL; that for `CC(=O)Nc1ccc(C(F)(F)F)cc1Cl`, 23.1 µg/mL (≈ 97.2 µM).
With `Cc1ccc(S(=O)(=O)N(C)C)cc1NC(=O)CCc1ccccc1`, the kinetic solubility came out at 49.9 µg/mL (≈ 144 µM).
The result for `O=C(NC(=S)NCc1ccccc1)c1ccc(Br)cc1` reads < 0.4 µg/mL.
The result for `CCOc1cc(C)c(S(=O)(=O)N2CCCCC2)cc1C` reads 14.5 µg/mL (≈ 48.8 µM).
In the case of `Cc1ccc(O)c(-c2cc(-c3ccc(F)cc3)no2)c1`, the solubility (kinetic) is < 0.6 µg/mL.
The figure for `CCN(C(=S)NC(=O)C1CC1)c1ccccc1` is > 37.3 µg/mL.
The result for `NC(=O)c1ccsc1NC(=O)COC(=O)CNC(=O)c1ccc(Cl)cc1` reads 3.4 µg/mL (≈ 8.59 µM); that for `O=S(=O)(Nc1ccccc1)c1ccc(NS(=O)(=O)c2cccs2)cc1`, 34.4 µg/mL (≈ 87.2 µM).
The figure for `CCCCN1C(=O)C(=O)N(CC(=O)c2ccc[nH]2)C1=O` is > 41.6 µg/mL; for `COc1ccccc1NC(=O)c1ccc([N+](=O)[O-])o1` it is 36.8 µg/mL (≈ 140 µM); for `COc1cc(C)c(C)cc1S(=O)(=O)N1CCCc2ccccc21` it is 4.9 µg/mL (≈ 14.8 µM).
The compound `O=C(CCNC(=O)c1ccc([N+](=O)[O-])cc1)Nc1ccc(F)cc1` showed a kinetic solubility of 21.8 µg/mL (≈ 65.8 µM).
The result for `O=C(NCCCCCCNC(=O)c1ccncc1)c1ccncc1` reads > 49 µg/mL.
Turning to `COc1ccc(CC(=O)OCC(=O)NC2CCCC(C)C2C)cc1` (centres undefined), the solubility (kinetic) is > 50 µg/mL.
The result for `Cl.O=C(CSC1=NCCN1)Nc1cccc([N+](=O)[O-])c1` reads > 47.5 µg/mL; that for `Cc1noc(C)c1COC(=O)c1ccc(N(C)C)cc1`, 1.6 µg/mL (≈ 5.83 µM).
Turning to `O=C(OCC(=O)N1CCOCC1)c1ccc(Cl)cc1[N+](=O)[O-]`, the kinetic solubility is 48.3 µg/mL (≈ 147 µM).
The figure for `CC(=O)c1ccc(NC(=O)C2CC(=O)N(C(C)C)C2)cc1` (centres undefined) is > 43.3 µg/mL.
The figure for `CSCCC1NC(=S)N(Cc2ccccc2)C1=O` (centres undefined) is > 42.1 µg/mL.
With `S=C(Nc1ccccc1Cl)NC1CCCCCC1`, the solubility (kinetic) came out at 22 µg/mL (≈ 77.8 µM).
The result for `O=C(CN1CCN(Cc2ccccc2)CC1)NCc1ccc(Cl)cc1` reads > 53.7 µg/mL; that for `CN(C)S(=O)(=O)c1ccc(NC=O)cc1`, > 34.2 µg/mL; that for `O=C(O)CCc1ccc(S(=O)(=O)Nc2ccccc2N2CCCCC2)cc1`, > 58.3 µg/mL.
With `COc1cccc(NC(=O)C2CCN(c3cnccn3)CC2)c1`, the kinetic solubility is > 46.9 µg/mL.
The result for `CS(=O)(=O)N1CCN(CC(=O)NC2CCCC2)CC1` reads > 43.4 µg/mL; that for `CCS(=O)(=O)c1ccc(O)c(NC(=O)/C=C/c2ccccc2)c1`, > 49.7 µg/mL.
The figure for `O=C(/C=C\c1ccccc1)Nc1ccc(NC(=O)c2ccco2)cc1` is < 0.4 µg/mL.
Regarding `CN(CCCC(=O)N1CCN(c2ncccn2)CC1)S(=O)(=O)c1ccc(F)cc1`, the solubility (kinetic) was > 63.2 µg/mL.
The figure for `N#C/C(=C\c1cccnc1)c1nc2ccccc2[nH]1` is 27.4 µg/mL (≈ 111 µM); for `CCCCNC(=O)c1cc2c(C)cc(C)cc2[nH]1` it is 2.2 µg/mL (≈ 9 µM).
In turn, `Cl.OCCN(CC#CC(O)(c1ccccc1)C1CCCCC1)CCO` (centres undefined) yielded a kinetic solubility of 53 µg/mL.
The figure for `COc1ccc(C(=O)NCc2ccc(N3CCN(C)CC3)cc2)cc1` is > 50.9 µg/mL; for `COc1ccc2c(c1OC)C(=O)N1C2SC(C)(C)[C@H]1C(=O)NC1CC1` (some centres undefined) it is > 54.4 µg/mL; for `Cc1ccccc1-c1noc(-c2ccccc2C(=O)NCC2CCCO2)n1` (centres undefined) it is 49.6 µg/mL (≈ 136 µM).
Consider `CN(C)c1ccc(NC(=S)c2ccc3ccccc3n2)cc1`, for which the solubility (kinetic) is < 0.2 µg/mL.
The result for `Cc1cc(C)cc(NC(=O)NCC(O)COc2ccc([N+](=O)[O-])cc2)c1` (centres undefined) reads 6.1 µg/mL (≈ 17 µM).
The result for `Cl.O=C(CN1CCCC1)Nc1ccc(Br)cc1` reads > 47.9 µg/mL; that for `COc1cccc(OC)c1C(=O)NC(=O)Nc1c(C)cccc1C`, 5.2 µg/mL (≈ 15.8 µM); that for `O=[N+]([O-])c1ccc(N2CCCCC2)nc1`, 29.2 µg/mL (≈ 141 µM).
As for `Nc1cccnc1Oc1ccccc1F`, the solubility (kinetic) was > 30.6 µg/mL.
The result for `CC(=O)c1cccc(NC(=O)CSc2nc3ccccc3c(=O)n2CCCN2CCOCC2)c1` reads > 72.1 µg/mL; that for `Cc1[nH]c(SCC(=O)c2c(N)n(C)c(=O)n(C)c2=O)nc1Cc1ccccc1`, > 59.9 µg/mL.
The figure for `COc1ccc(C)cc1N(CC(=O)N1CCCC1)S(C)(=O)=O` is > 49 µg/mL; for `COc1ccc(CCNC2CCC(c3ccccc3)CC2)cc1` (centres undefined) it is > 46.4 µg/mL.
In turn, `Cc1cccn2c(=O)c3cc(C(=O)NCC(C)C)sc3nc12` gave a solubility (kinetic) of 1.2 µg/mL (≈ 3.8 µM).
The figure for `CC(C)(C)c1nc(N)nc(=O)[nH]1` is 23.9 µg/mL (≈ 142 µM).
The result for `O=C(COC(=O)c1ccccc1Cl)NC1CCCCCC1` reads 29.5 µg/mL (≈ 95.2 µM); that for `Cc1cccc(OC(C)C(=O)OCC(=O)N2CCN(c3ccccc3)CC2)c1` (centres undefined), 43.4 µg/mL (≈ 113 µM); that for `Cc1cc(C)nc(SC2CC(=O)N(c3ccc(C)c(C)c3)C2=O)n1` (centres undefined), 19.7 µg/mL (≈ 57.7 µM).
The result for `COc1cc2ccccc2cc1C(=O)N1CC(C)CC(C)C1` (centres undefined) reads > 44.6 µg/mL.
Regarding `CC(=O)Nc1ccc(NC(=O)C2(C)CC2(Cl)Cl)cc1` (centres undefined), the solubility (kinetic) was > 45.2 µg/mL.
In turn, `O=C(NCC1CCCO1)c1ccc(NC(=O)c2cccc([N+](=O)[O-])c2)cc1` (centres undefined) registered a solubility (kinetic) of 3.5 µg/mL (≈ 9.48 µM).
Take `COc1ccc(OC)c(S(=O)(=O)N2CCN(C)CC2c2ccccc2)c1` (centres undefined): the kinetic solubility is > 56.5 µg/mL.
The result for `O=C(NCc1c(Cl)cccc1Oc1ccccc1)c1ccccc1` reads 0.9 µg/mL (≈ 2.66 µM); that for `COc1ccc(Cl)cc1NC(=O)CN(C)C(=O)c1cccc2cccnc12`, 48.5 µg/mL (≈ 126 µM).
The figure for `COc1ccc(NC(=O)COc2ccc(/C=N/O)cc2OC)cc1` is > 49.6 µg/mL; for `CC1CCC(NC(=O)c2cc3c(s2)CCCC3)CC1` (centres undefined) it is 2.8 µg/mL (≈ 10.1 µM); for `N#C/C(=C\c1ccccc1)C(=O)Nc1nncs1` it is > 38.4 µg/mL.
The figure for `CC(=O)c1cc(CCC(=O)NC2CCCCCC2)oc1C` is > 43.7 µg/mL; for `CCOc1ccc(C(=O)CCC(=O)NC(C)C(=O)OC)cc1` (centres undefined) it is > 46.1 µg/mL; for `O=c1[nH]c2cccc(F)c2n2cccc12` it is 3.2 µg/mL (≈ 15.8 µM).
In turn, `COc1ccc(CNC(=S)Nc2ccc(F)c(Cl)c2)cc1OC` gave a kinetic solubility of 3.2 µg/mL (≈ 9.02 µM).
As to `Cn1cccc1C(=O)NCC(c1ccco1)N1CCCCC1` (centres undefined), the solubility (kinetic) was > 45.2 µg/mL.
The figure for `CC1(C(=O)O)CCC(C(=O)Nc2ccc(F)cc2)C1(C)C` (centres undefined) is > 44 µg/mL.
